Like-named read-outs stand apart in the source and are kept apart here.
What was measured:
PPAR Alpha = biological target: T1, PPAR Alpha (Homo sapiens, UniProt Q07869); test: PathHunter NHR protein interaction / nuclear translocation agonist test, PPAR Alpha; format: cell-based; settings: for EC50: agonist mode, read-out: PPAR Alpha EC50; for Emax: read-out: PPAR Alpha Maximum Activation Response %
T1 sequence (Q07869 1-468): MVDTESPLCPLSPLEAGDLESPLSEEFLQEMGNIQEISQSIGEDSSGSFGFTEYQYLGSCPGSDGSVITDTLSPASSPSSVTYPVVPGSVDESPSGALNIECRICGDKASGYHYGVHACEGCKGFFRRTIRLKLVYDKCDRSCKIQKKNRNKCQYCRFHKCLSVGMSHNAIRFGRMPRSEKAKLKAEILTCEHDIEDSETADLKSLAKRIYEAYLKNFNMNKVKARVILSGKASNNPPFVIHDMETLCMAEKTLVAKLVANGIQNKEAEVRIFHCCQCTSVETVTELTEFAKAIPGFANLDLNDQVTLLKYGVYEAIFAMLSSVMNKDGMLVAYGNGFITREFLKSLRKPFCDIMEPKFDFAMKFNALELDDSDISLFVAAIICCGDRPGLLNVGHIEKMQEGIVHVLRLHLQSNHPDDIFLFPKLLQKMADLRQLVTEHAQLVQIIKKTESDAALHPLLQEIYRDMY

PPAR Delta = biological target: T2, PPAR Delta (Homo sapiens, UniProt Q03181); test: PathHunter NHR protein interaction / nuclear translocation agonist test, PPAR Delta; format: cell-based; settings: for EC50: agonist mode, read-out: PPAR Delta EC50; for Emax: read-out: PPAR Delta Maximum Activation Response %
T2 sequence (Q03181 1-441): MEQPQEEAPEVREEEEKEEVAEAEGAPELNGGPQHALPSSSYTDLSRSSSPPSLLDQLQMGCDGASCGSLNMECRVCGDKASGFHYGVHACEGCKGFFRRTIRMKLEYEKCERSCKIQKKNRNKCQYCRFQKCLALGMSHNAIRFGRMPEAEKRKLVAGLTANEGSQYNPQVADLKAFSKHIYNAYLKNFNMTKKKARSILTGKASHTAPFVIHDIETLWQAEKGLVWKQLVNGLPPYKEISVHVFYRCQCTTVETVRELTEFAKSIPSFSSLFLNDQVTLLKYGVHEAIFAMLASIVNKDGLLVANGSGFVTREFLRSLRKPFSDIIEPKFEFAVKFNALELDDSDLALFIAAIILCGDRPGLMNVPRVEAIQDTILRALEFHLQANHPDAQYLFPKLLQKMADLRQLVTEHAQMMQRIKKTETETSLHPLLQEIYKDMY

[1] = relative to known PPARδ agonist L-165,041 = 100%

Row | SMILES | EC50 (PPAR Alpha) [nM] | Emax (PPAR Alpha) [%] | EC50 (PPAR Delta) [nM] | Emax (PPAR Delta; [1]) [%] | Emax (PPAR Delta) [%] | PPAR Alpha Maximum Activation Response % (PPAR Alpha) | Emax (PPAR Alpha; reference agonist, indicated to be 100% (Note 1)) [%] | PPAR Delta Maximum Activation Response % (PPAR Delta)
1 | CSc1ccc(C(=O)[C@@H]2CN(C(=O)Oc3ccc(Cl)cc3Cl)C[C@H]2c2cc(C)c(OC(C)(C)C(=O)O)c(C)c2)cc1 (single isomer, unassigned) [Compound 41] | < 100 | 80 to 100 | < 100 | 80 to 100 | – | – | – | –
2 | CSc1ccc(C(=O)C2CN(C(=O)Oc3ccccc3)CC2Cc2cccc(OC(C)(C)C(=O)O)c2)cc1 (single isomer, unassigned) [Compound 49] | – | – | 100 to 150 | – | 50 to 80 | – | – | –
3 | CSc1ccc(C(=O)C2CN(C(=O)Oc3ccc(C)cc3)CC2c2cc(C)c(OC(C)(C)C(=O)O)c(C)c2)cc1 (single isomer, unassigned) [Compound 39] | < 100 | 80 to 100 | 100 to 150 | – | 80 to 100 | – | – | –
4 | COCCN1CC(CCc2cc(C)c(OC(C)(C)C(=O)O)c(C)c2)C(C(=O)c2ccc(SC)cc2)C1 (stereo not drawn) [Compound 59] | 200 to 250 | 50 to 80 | 200 to 250 | 50 to 80 | – | – | – | –
5 | Cc1cc(CCC2CN(C(=O)Oc3ccccc3)CC2C(=O)c2ccccc2)cc(C)c1OC(C)(C)C(=O)O (single isomer, unassigned) [Compound 62] | 100 to 150 | 80 to 100 | 100 to 150 | 80 to 100 | – | – | – | –
6 | COC(=O)N1CC(Cc2ccc(SC)cc2)C(c2cc(C)c(OC(C)(C)C(=O)O)c(C)c2)C1 (single isomer, unassigned) [Compound 22] | > 250 | < 50 | – | – | – | – | – | –
7 | CSc1ccc(C(=O)[C@H]2CN(Cc3ccccc3)C[C@@H]2c2cc(C)c(OC(C)(C)C(=O)O)c(C)c2)cc1 (racemic) [Compound 2] | > 250 | < 50 | – | – | – | – | – | –
8 | CSc1ccc(C(=O)C2CN(C(=O)OCc3ccccc3)CC2c2cc(C)c(OC(C)(C)C(=O)O)c(C)c2)cc1 (single isomer, unassigned) [Compound 8] | > 250 | 50 to 80 | – | – | – | – | – | –
9 | CSc1ccc(C(=O)C2CN(C(=O)Oc3ccccc3)CC2Cc2ccc(OC(C)(C)C(=O)O)cc2F)cc1 (single isomer, unassigned) [Compound 83] | 100 to 150 | 80 to 100 | 200 to 250 | 80 to 100 | – | – | – | –
10 | CSc1ccc(C(=O)[C@@H]2CN(C(=O)Oc3ccccc3)C[C@H]2CCc2cc(C)c(OC(C)(C)C(=O)O)c(C)c2)cc1 (single isomer, unassigned) [Compound 51] | < 100 | – | < 100 | – | 80 to 100 | – | – | –
11 | CSc1ccc(C(=O)[C@H]2CNC[C@@H]2c2cc(C)c(OC(C)(C)C(=O)O)c(C)c2)cc1 (racemic) [Compound 3] | > 250 | < 50 | – | – | – | – | – | –
12 | CSc1ccc(C(=O)[C@@H]2CN(C(C)=O)C[C@H]2CCc2cc(C)c(OC(C)(C)C(=O)O)c(C)c2)cc1 (racemic) [Compound 71] | 200 to 250 | 80 to 100 | 150 to 200 | – | 80 to 100 | – | – | –
13 | CSc1ccc(C(=O)C2CN(C(=O)OC3CCCC3)CC2CCc2cc(C)c(OC(C)(C)C(=O)O)c(C)c2)cc1 (single isomer, unassigned) [Compound 74] | < 100 | 80 to 100 | 100 to 150 | 80 to 100 | – | – | – | –
14 | CSc1ccc(C(=O)C2CN(S(C)(=O)=O)CC2c2cc(C)c(OC(C)(C)C(=O)O)c(C)c2)cc1 (single isomer, unassigned) [Compound 18] | 200 to 250 | 80 to 100 | > 250 | 50 to 80 | – | – | – | –
15 | CSc1ccc(C(=O)C2CN(C(=O)Oc3ccccc3)CC2c2cccc(OC(C)(C)C(=O)O)c2)cc1 (stereo not drawn) [Compound 24] | – | – | > 250 | – | 80 to 100 | – | – | –
16 | CSc1ccc(C(=O)C2CN(C(=O)Oc3cccc(Cl)c3)CC2c2cc(C)c(OC(C)(C)C(=O)O)c(C)c2)cc1 (single isomer, unassigned) [Compound 38] | < 100 | 80 to 100 | 150 to 200 | – | – | – | – | –
17 | CSc1ccc(C(=O)[C@@H]2CN(C(=O)Oc3ccc(Cl)cc3F)C[C@H]2c2cc(C)c(OC(C)(C)C(=O)O)c(C)c2)cc1 (single isomer, unassigned) [Compound 42] | < 100 | 80 to 100 | < 100 | 80 to 100 | – | – | – | –
18 | COC(=O)N1C[C@@H](C(=O)c2ccc(SC)cc2)[C@H](c2cc(C)c(OC(C)(C)C(=O)O)c(C)c2)C1 (single isomer, unassigned) [Compound 4] | > 250 | – | – | – | – | III (key: 100% ≥ I ≥ 80%; 80% ≥ II ≥ 50%; III < 50%) | – | –

Row | SMILES | EC50 (PPAR Alpha) [nM] | Emax (PPAR Alpha) [%] | EC50 (PPAR Delta) [nM] | Emax (PPAR Delta; [1]) [%] | Emax (PPAR Delta) [%] | PPAR Alpha Maximum Activation Response % (PPAR Alpha) | Emax (PPAR Alpha; reference agonist, indicated to be 100% (Note 1)) [%] | PPAR Delta Maximum Activation Response % (PPAR Delta)
19 | CSc1ccc(C(=O)C2CN(C(=O)c3ccccc3)CC2c2cc(C)c(OC(C)(C)C(=O)O)c(C)c2)cc1 (single isomer, unassigned) [Compound 17] | > 250 | – | – | – | – | – | – | –
20 | CSc1ccc(C(=O)[C@H]2CN(C)C[C@@H]2c2cc(C)c(OC(C)(C)C(=O)O)c(C)c2)cc1 (racemic) [Compound 1] | > 250 | < 50 | – | – | – | – | – | –
21 | CCOC(=O)N1CC(C(=O)c2ccc(SC)cc2)C(c2cc(C)c(OC(C)(C)C(=O)O)c(C)c2)C1 (single isomer, unassigned) [Compound 6] | > 250 | 50 to 80 | – | – | – | – | – | –
22 | CSc1ccc(C(=O)[C@@H]2CN(C(=O)Oc3ccccc3)C[C@H]2CCc2cc(C)c(OC(C)(C)C(=O)O)c(C)c2)cc1 (single isomer, unassigned) [Compound 52] | < 100 | – | < 100 | – | – | – | – | –
23 | CSc1ccc(C(=O)C2CN(C(=O)Oc3ccc(F)cc3)CC2c2cc(C)c(OC(C)(C)C(=O)O)c(C)c2)cc1 (single isomer, unassigned) [Compound 35] | 200 to 250 | 80 to 100 | 150 to 200 | – | 50 to 80 | – | – | –
24 | CSc1ccc(C(=O)C2CN(C(=O)c3ccccc3)CC2c2cc(C)c(OC(C)(C)C(=O)O)c(C)c2)cc1 (single isomer, unassigned) [Compound 16] | > 250 | 80 to 100 | – | – | – | – | – | –
25 | COc1ccc(OC(=O)N2CC(C(=O)c3ccc(SC)cc3)[C@@H](c3cc(C)c(OC(C)(C)C(=O)O)c(C)c3)C2)cc1 (mixture of isomers) [Compound 15] | 150 to 200 | 80 to 100 | 200 to 250 | – | 50 to 80 | – | – | –
26 | CSc1ccc(C(=O)[C@H]2CN(C(=O)Nc3ccc(Cl)cc3)C[C@@H]2c2cc(C)c(OC(C)(C)C(=O)O)c(C)c2)cc1 (racemic) [Compound 37] | < 100 | 80 to 100 | 200 to 250 | – | 50 to 80 | – | – | –
27 | CSc1ccc(C(=O)C2CN(C(=O)Oc3ccccc3Cl)C[C@@H]2c2cc(C)c(OC(C)(C)C(=O)O)c(C)c2)cc1 (mixture of isomers) [Compound 12] | 150 to 200 | 80 to 100 | > 250 | – | 50 to 80 | – | – | –
28 | CSc1ccc(C(=O)[C@H]2CN(C(=O)Cc3ccc(Cl)cc3)C[C@@H]2c2cc(C)c(OC(C)(C)C(=O)O)c(C)c2)cc1 (racemic) [Compound 36] | < 100 | 80 to 100 | > 250 | 50 to 80 | – | – | – | –
29 | CC(C)(Sc1ccc(CCN(CCCCC2CCCCC2)C(=O)NC2CCCCC2)cc1)C(=O)O [GW7647, reference compound] | – | – | – | – | – | – | 100 | –
30 | CSc1ccc(C(=O)C2CN(C(=O)Oc3ccc(Cl)cc3)CC2Cc2cc(C)c(OC(C)(C)C(=O)O)c(C)c2)cc1 (single isomer, unassigned) [Compound 27] | < 100 | 80 to 100 | < 100 | – | 50 to 80 | – | – | –
31 | CSc1ccc(C(=O)C2CN(C3COC3)C[C@@H]2CCc2cc(C)c(OC(C)(C)C(=O)O)c(C)c2)cc1 (mixture of isomers) [Compound 73] | 200 to 250 | 80 to 100 | > 250 | 80 to 100 | – | – | – | –
32 | CSc1ccc(C(=O)C2CN(C(=O)Oc3ccc(F)cc3)CC2Cc2cc(C)c(OC(C)(C)C(=O)O)c(C)c2)cc1 (single isomer, unassigned) [Compound 28] | < 100 | 80 to 100 | < 100 | – | 50 to 80 | – | – | –
33 | CSc1ccc(C(=O)C2CN(C(=O)Oc3ccc(Cl)cc3)CC2c2cccc(OC(C)(C)C(=O)O)c2)cc1 (single isomer, unassigned) [Compound 33] | 200 to 250 | 80 to 100 | > 250 | – | 50 to 80 | – | – | –
34 | COC(=O)N1CC(Cc2ccc(SC)cc2)C(c2cc(C)c(OC(C)(C)C(=O)O)c(C)c2)C1 (single isomer, unassigned) [Compound 23] | > 250 | – | – | – | – | – | – | –
35 | CSc1ccc(C(=O)C2CN(C(=O)Oc3ccccc3)CC2Cc2cccc(OC(C)(C)C(=O)O)c2)cc1 (single isomer, unassigned) [Compound 50] | – | – | 150 to 200 | – | – | – | – | II (key: 100% ≥ I ≥ 80%; 80% ≥ II ≥ 50%; III < 50%)
